Source: patent publication US5153175A, “Method of inducing sleep with GHRH complementary peptide compositions” (University of Tennesee Research Corporation, priority 1989, dated 1992)
Blank lines part the entries; values can stand above or below the substance they belong to. Ends that are not written are not given here.

Legend:
rabbits = assay: Biological assay for sleep-promoting activity in rabbits after intracerebroventricular infusion (EEG, body movement, temperature); type: in vivo; conditions: rabbit; for time spent in SWS / time spent in rapid-eye-movement sleep: after administration, vs control
Experimental: Biological assays for sleep-promoting activity were performed on rabbits provided with chronically implanted ventricular guide tubes and four epidural screw electrodes for EEG. The animals were allowed at least one week to recover from surgery prior to their use for assays. Samples for testing were taken up in sterile artificial cerebrospinal fluid and a total of […] solution was infused intraventricularly (ICV) at the rate of 25 ul/min through a No. 26 hypodermic needle inserted through a guide tube. Following the infusion and removal of the infusion probe the animals were left undisturbed for 6-8 hours while EEG and bodily movements were recorded.
Slow wave sleep (SWS) was scored in two ways: (i) by conventional subjective scoring of the duration of SWS from polygraph records and (ii) by digital print-out of integrated mean rectified cortical slow waves (1/2-4 Hz). thus obtaining a measure of the amplitude was well as duration of delta wave EEG activity. Control animals were also assayed at the same time.
Operation and experimental procedure. Adult male New Zealand White Pasteurella-free rabbits, weighing 3-4 kg, were purchased from Myrtle's Rabbitry (Thompson Station, Tenn.). Under ketamine-xylazine (3.5-5.0 mg/kg iv) anesthesia, animals were provided with chronically implanted EEG electrodes, a glass-bead thermistor, and a cerebral ventricular guide tube (Krueger, J.M et al., Am. J. Physiol. 251 (Regulatory Integrative Comp. Physiol. 20): R591-R597, 1986; and Walter J.D. et al., Am. J. Physiol., 250 (Regulatory Integrative Comp. Physiol. 19): R96-R103, 1986). Briefly, stainless steal screws were implanted over the frontal parietal, and occipital cortex; and a small (1 mm diam) 50-k.OMEGA. thermistor (Fenwall Electronics) was placed 3 mm into the parietal cortex. Wires from Amphenol plugs (no. 223-1509) were soldered to the screws for EEG recordings and to the thermistors for brain temperature (Tbr) recordings. The ventricular guide tube was implanted 4 mm lateral to the bregma; during the implantation procedure, pressure at the tip of the infusion needle was monitored and used as an aid to locate the ventricle (See, e.g., Krueger, J.M et al., Am. J. Physiol., 246 (Regulatory Integrative Comp. Physiol. 15): R994-R999, 1984). Dental acrylic (DuzAll) was then used to insulate the leads and to secure the guide tube and EEG/thermistor plugs to the skull. A topical antibiotic (Bacitracin, Lilly) was applied to the incision, and 150,000 U of Duracillin (Lilly) were administered intramuscularly. At least 1 week was allowed for recovery.
Animals were housed in rooms on a 12:12-h light-dark cycle (0600-1800 h light) maintained at 21 ±2° C. The day before an experiment animals were brought to experimental chambers (Hotpack model 352600) for an overnight acclimation period. Each experimental chamber was also kept at 21 ±2° C. on a 12:12-h light-dark cycle. Food and water were available ad libitum at all times. At the top of the recording chamber, BRS/LVE electrical contact swivel was fixed; this allowed the rabbits free movement during recording periods. From the other end of the swivel a cable led to a Grass polygraph model 7D. Before each recording period the rabbits were connected to the recording cable for a 1-h habituation period, but data were not collected during this time.
Rabbits were then briefly taken out of the experimental cages and given the 3'-5' or 5'-3' CP (the "test substance"). [When animals received intracerebroventricular (ICV) injections, appropriate amounts of test substances (0.1-10.0 ul) were diluted to 50 ul with artificial CSF [3 mM KCL, 1.15 mM CaCl2 and 0.96 mM MgCl2 in pyrogen-free saline (PFS), […] NaCl (Abbott)]; these solutions were slowly infused over 2 min. […]

[1] = amino acids added to carboxyl terminal of N-acetyl muramyl-L-alanyl-D-isoglutamine; cited from earlier work
growth hormone release = conditions: relative potency of C-terminal deleted hGHRH fragments; cited from earlier work
rat pituitary gland = conditions: cited from earlier work
lactating holstein cows = conditions: cited from earlier work

- behavior (arousable; eat, drink and groom) (rabbits; ICV): behavior was normal
- character of the excess sleep (cycling through states of vigilance) (rabbits; ICV): appeared normal
- temperatures of the animals (rabbits; ICV): remained normal
Substance: H-DPVNIRAFDDVL-NH2 [3'-5' CP, H-Asp-Pro-Val-Asn-Ile-Arg-Ala-Phe-Asp-Asp-Val-Leu-NH2]
- capacity to enhance sleep (rabbits; ICV): have the capacity to enhance sleep
- time spent in SWS (rabbits; ICV): significantly more time
- time spent in rapid-eye-movement sleep (rabbits; ICV): significantly more time

- behavior (arousable; eat, drink and groom) (rabbits; in vivo): behavior was normal
- character of the excess sleep (cycling through states of vigilance) (rabbits; in vivo): appeared normal
- temperatures of the animals (rabbits; in vivo): remained normal
Substance: H-VEPGSLFLVPLPLLPVHDFVQQFAGI-NH2 [5'-3' CP]
- capacity to enhance sleep (rabbits; ICV): have the capacity to enhance sleep
- time spent in SWS (rabbits; ICV): significantly more time
- time spent in rapid-eye-movement sleep (rabbits; ICV): significantly more time

Substance: N-acetyl-muramyl-L-alanyl-D-isoglutamyl-L-diaminopimelyl alanine
- somnogenic activity [1]: somnogenic activity is retained

Substance: hGHRH (1-19): C-terminal deleted GHRH fragment (YADAIFTNSYRKVLGQLSA; Somatoliberin; UniProt P01286 32-50, looked up, fragment)
- relative GH-releasing potency (growth hormone release): No activity

Substance: hGHRH (1-24): C-terminal deleted GHRH fragment (YADAIFTNSYRKVLGQLSARKLLQ; Somatoliberin; UniProt P01286 32-55, looked up, fragment)
- relative GH-releasing potency (growth hormone release): 0.02%

Substance: hGHRH (1-27): C-terminal deleted GHRH fragment (YADAIFTNSYRKVLGQLSARKLLQDIM; Somatoliberin; UniProt P01286 32-58, looked up, fragment)
- relative GH-releasing potency (growth hormone release): 12%

Substance: human GHRH: Growth Hormone Releasing Hormone, hypothalamic peptide which positively regulates the synthesis and secretion of growth hormone (YADAIFTNSYRKVLGQLSARKLLQDIMSRQQGESNQERGARARL; ends and bridges not checked; UniProt P01286 32-75, looked up)
- GH-stimulating effect (rat pituitary gland): a GH-stimulating effect on the rat pituitary gland
- feed to milk conversion (lactating holstein cows): apparent increase
- secretion of growth hormone (lactating holstein cows): increases the secretion of growth hormone consistently
